Reference: ChEMBL document CHEMBL1201862, “PubChem BioAssay data set” (2004)
The source made the active and inactive calls.

Legend:
Vero = test: host cell cytotoxicity of antiviral hits, dose response, cytotoxicity control for West Nile virus antiviral project, secondary assay (AID 1650); format: functional; conditions: Chlorocebus sabaeus
[1] = LGR2 antagonists, dose response, cell-based, HEK293, CRE-luciferase reporter, cherry pick, set 2 (AID 743343); format: functional;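 also: transfected cells were stimulated with diluted bursicon conditioned medium after compound addition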
[2] = MC4R antagonists, dose response, counter-screen for LGR2 antagonist project, cell-based, plate reader, cherry pick (AID 743444); format: functional;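 also: transfected HEK 293 cells stimulated with alpha-MSH peptide; potency of inhibitors of the alpha-MSH evoked signal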
[3] = HepG2 cell cytotoxicity, dose response, cytotoxicity control, plate reader, cherry-pick, antagonist series (AID 743416); format: functional, cell-based
[4] = Fluorescence-based cell-based high throughput dose response assay for inhibitors of the interaction of nucleotide-binding oligomerization domain containing 2 (NOD2) and the receptor-interacting serine-threonine kinase 2 (RIPK2).; format: functional; conditions: Homo sapiens
[5] = HEK293 cell cytotoxicity, dose response, cytotoxicity control, plate reader, cherry-picked samples (AID 743446); format: functional, cell-based
Paired box protein Pax-8 = Paired box protein Pax-8 (Homo sapiens, UniProt Q06710); test: inhibitors of PAX8-driven TPO luciferase reporter, dose response, RMG-I cells, cherry-pick (AID 687027); format: functional, cell-based;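 also: luciferase reporter driven by Pax8 target thyroperoxidase promoter measured by SteadyGlo luminescence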
[6] = A549 cell cytotoxicity, dose response, cytotoxicity control, plate reader, cherry-pick, antagonist series (AID 743412); format: functional, cell-based
[7] = cytotoxicity in OVCAR8 ovarian cancer cells, dose response, PAX8 project, cell-based, plate reader, dry powder samples (AID 743197); format: functional; conditions: OVCAR-8
[8] = A2780 ovarian cancer cell cytotoxicity, dose response, cytotoxicity control, plate reader, dry powder samples (AID 743046); format: functional, cell-based
[9] = NIH:OVCAR-3 ovarian cancer cell cytotoxicity, dose response, PAX8 inhibitor project, plate reader, dry powder samples (AID 743044); format: functional, cell-based
Kallikrein-7 = Kallikrein-7 (Homo sapiens, UniProt P49862); test: Fluorescence Intensity-based biochemical primary high throughput dose response assay to identify activators of kallikrein-7 (K7) zymogen.
[10] = Jurkat T cell cytotoxicity, dose response, cytotoxicity control for P. falciparum gametocyte viability project, luminescence (AID 1117277); format: functional, cell-based;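 also: potency reflects loss of cellular ATP meaning fewer viable cells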
[11] = P. falciparum late gametocyte killing, dose response, luminescence (AID 1117278); format: functional, cell-based;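 also: gametocytes exposed to compound for 24 hours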
[12] = cytotoxicity toward HCT116 cells – cell-based, CellTiter-Glo luminescence, IC50, dose response (AID 1117332); format: functional; conditions: HCT-116
[13] = CellTiter-Glo luminescent dose response of DLD-1 viability loss (AID 1117352); format: functional
[14] = cytotoxicity toward Colo320 cells – cell-based, CellTiter-Glo luminescence, IC50, dose response (AID 1117334); format: functional; conditions: COLO 320
[15] = SNU-C1 cell viability reduction, dose response, CellTiter-Glo luminescence (AID 1117323); format: functional, cell-based
[16] = RKO cell viability reduction, dose response, CellTiter-Glo luminescence (AID 1117322); format: functional
[17] = cytotoxicity toward HT-29 cells – cell-based, CellTiter-Glo luminescence, IC50, dose response (AID 1117330); format: functional
[18] = Concentration-dependent survival of SW480 colon cancer line, luminescence detection with CellTiter-Glo, half-maximal inhibitory concentration (AID 1117338); format: functional

Sequence of Paired box protein Pax-8 (Q06710 whole entry): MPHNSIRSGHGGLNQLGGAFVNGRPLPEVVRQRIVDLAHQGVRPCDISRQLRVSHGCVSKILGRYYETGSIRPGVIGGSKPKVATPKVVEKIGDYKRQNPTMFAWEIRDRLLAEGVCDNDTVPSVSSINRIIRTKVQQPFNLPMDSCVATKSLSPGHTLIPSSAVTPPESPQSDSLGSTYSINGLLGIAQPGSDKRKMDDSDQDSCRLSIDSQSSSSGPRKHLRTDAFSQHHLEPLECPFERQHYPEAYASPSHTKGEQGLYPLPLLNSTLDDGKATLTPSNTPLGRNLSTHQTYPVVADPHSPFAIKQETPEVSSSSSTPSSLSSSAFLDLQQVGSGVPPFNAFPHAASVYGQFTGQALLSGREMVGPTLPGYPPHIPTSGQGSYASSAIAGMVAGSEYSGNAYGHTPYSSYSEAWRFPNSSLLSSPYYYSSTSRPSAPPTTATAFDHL
Sequence of Kallikrein-7 (P49862 whole entry): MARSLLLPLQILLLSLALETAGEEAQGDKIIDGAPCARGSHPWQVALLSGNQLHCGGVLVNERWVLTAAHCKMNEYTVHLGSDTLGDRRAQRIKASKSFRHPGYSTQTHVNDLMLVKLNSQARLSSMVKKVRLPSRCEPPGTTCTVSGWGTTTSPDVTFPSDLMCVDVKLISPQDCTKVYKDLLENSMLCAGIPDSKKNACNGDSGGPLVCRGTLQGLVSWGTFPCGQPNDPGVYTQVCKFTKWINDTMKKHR

For `COc1ccc2nc(Nc3nc(O)cc(CSc4nnnn4-c4ccccc4)n3)nc(C)c2c1`, the CC50 (Vero) was > 100 µM (active).
For `O=C1NC2C(O)C(O)C(O)C(O)C2c2cc3c(c(O)c21)OCO3` (configuration not stated), the AC50 [1] was 0.362 µM (active), the AC50 [2] was 0.372 µM (active) and the AC50 [3] was 0.428 µM (active). The IC50 [4] was 49.8 µM (inactive), the AC50 [5] was 0.321 µM (active) and the AC50 (Paired box protein Pax-8) was < 0.26 µM (active). The AC50 [6] was 0.358 µM (active).
For `C[C@H]1CCCCO[C@@H](CN(C)Cc2ccc(C(F)(F)F)cc2)[C@@H](C)CN([C@@H](C)CO)C(=O)c2cc(NC(=O)Cc3ccccc3)ccc2O1`, the AC50 [7] was 30.8 µM (active), the AC50 [8] was 963 nM (active) and the AC50 (Paired box protein Pax-8) was 7.94 µM (active). For the same molecule, the AC50 [9] was 11.4 µM (active).
In the case of `Clc1ccc(-c2cnc3cccnn23)cc1`, the EC50 (Kallikrein-7) is reported as > 69.5 µM (inactive).
For `CS(=O)(=O)Cc1cc(N2CCCC2)nc(-c2ccccc2)n1`, the IC50 [10] was > 83.3 µM (inactive) and the IC50 [11] was > 109 µM (inactive).
In the case of `C[C@@H]1CN([C@H](C)CO)C(=O)Cc2cc(NS(=O)(=O)c3ccc(Cl)cc3)ccc2O[C@@H]1CN(C)Cc1ccc(C(F)(F)F)cc1`, the AC50 [1] is reported as 22.7 µM (active), the AC50 [2] is reported as 20.2 µM (active) and the AC50 [3] is reported as 10.4 µM (active). The AC50 [5] was 15.8 µM (active) and the AC50 [6] was 7.62 µM (active).
For `CN(CCOc1ccc(CC2SC(=O)NC2=O)cc1)c1ccccn1` (configuration not stated) [ROSIGLITAZONE], the IC50 [12] was > 20 µM (inactive), the IC50 [13] was > 20 µM (inactive) and the IC50 [14] was > 20 µM (inactive). For the same molecule, the IC50 [15] was 8.69 µM (inactive), the IC50 [16] was > 20 µM (inactive) and the IC50 [17] was > 20 µM (inactive). For the same molecule, the IC50 [18] was > 20 µM (inactive).
